Measured values reported in US11498903B2 (BRISTOL-MYERS SQUIBB COMPANY, priority 2017, dated 2022).
Where two headings read alike, the source gives them in different places.

Target: T1, human APJ receptor (Homo sapiens, UniProt P35414)
T1 construct: expressed in transfected cells
T1 sequence (P35414 1-380): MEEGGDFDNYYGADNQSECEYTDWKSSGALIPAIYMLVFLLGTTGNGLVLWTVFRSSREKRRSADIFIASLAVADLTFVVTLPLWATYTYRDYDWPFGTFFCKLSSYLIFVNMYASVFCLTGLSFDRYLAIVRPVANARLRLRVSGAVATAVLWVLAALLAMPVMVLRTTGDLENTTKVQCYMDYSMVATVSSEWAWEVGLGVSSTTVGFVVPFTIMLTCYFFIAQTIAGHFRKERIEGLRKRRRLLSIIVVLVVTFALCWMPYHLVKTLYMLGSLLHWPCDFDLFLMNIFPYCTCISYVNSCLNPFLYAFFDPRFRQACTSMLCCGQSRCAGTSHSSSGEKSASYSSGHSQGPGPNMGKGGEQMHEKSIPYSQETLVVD
Experiment: Intracellular cAMP accumulation assay (APJ hcAMP, HTRF)
Type: cell-based
Settings: HEK293 cells stably expressing human APJ receptor
Outline: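 HEK293 cells stably expressing human APJ, 5,000/well, incubated 30 min at room temperature with compound plus […] and 2 μM forskolin. cAMP read by HTRF against a cAMP standard curve; EC50 from variable-slope sigmoidal fit, Ymax as % of (Pyr1)apelin-13 inhibition.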

[1] = Table 1, inhibition of forskolin-mediated cAMP production, read-out: APJ hcAMP EC50
[2] = Table 2, read-out: APJ cAMP Human EC50

Row | SMILES | EC50 [1] [nM] | EC50 [2] [nM]
1 | CCC[C@@H](NC(=O)c1ccc(-c2ccc(F)cc2-c2nc3cc(C(C)(C)C)ccc3[nH]2)c(C(=O)O)c1)c1ccccc1 [Example 40, 2′-(5-tert-butyl-1H-1,3-benzodiazol-2-yl)-4′-fluoro-4-{[(1R)-1-phenylbutyl]carbamoyl}-[1,1′-biphenyl]-2-carboxylic acid] | 10 to 100 | 10 to 100
2 | CCC[C@@H](NC(=O)c1ccc(-c2cc(Cl)ccc2-c2nc3ccccc3[nH]2)c(C(=O)NOC)c1)c1ccccc1 [Example 41, 2′-(1H-1,3-benzodiazol-2-yl)-5′-chloro-N2-methoxy-N4-[(1R)-1-phenylbutyl]-[1,1′-biphenyl]-2,4-dicarboxamide] | 10 to 100 | 10 to 100
3 | CCC[C@@H](NC(=O)c1ccc(-c2cc(Cl)ccc2-c2nc3ccccc3[nH]2)c(C(=O)NO)c1)c1ccccc1 [Example 42, 2′-(1H-1,3-benzodiazol-2-yl)-5′-chloro-N2-hydroxy-N4-[(1R)-1-phenylbutyl]-[1,1′-biphenyl]-2,4-dicarboxamide] | 10 to 100 | 10 to 100
4 | CCC[C@@H](NC(=O)c1ccc(-c2cc(Cl)ccc2-c2nc3ccccc3[nH]2)c(C(=O)OC)c1)c1ccccc1 [Example 43, methyl 2′-(1H-1,3-benzodiazol-2-yl)-5′-chloro-4-{[(1R)-1-phenylbutyl]carbamoyl}-[1,1′-biphenyl]-2-carboxylate] | 101 to 500 | 101 to 500
5 | CCC[C@@H](NC(=O)c1ccc(-c2cc(Cl)ccc2-c2nc3ccccc3[nH]2)c(C(=O)NS(C)(=O)=O)c1)c1ccccc1 [Example 44, 2′-(1H-1,3-benzodiazol-2-yl)-5′-chloro-N2-methanesulfonyl-N4-[(1R)-1-phenylbutyl]-[1,1′-biphenyl]-2,4-dicarboxamide] | 10 to 100 | 10 to 100
6 | CCC[C@@H](NC(=O)c1ccc(-c2cc(Cl)ccc2-c2nc3ccccc3[nH]2)c(C(=O)NS(=O)(=O)c2ccc(Cl)cc2)c1)c1ccccc1 [Example 45, 2′-(1H-1,3-benzodiazol-2-yl)-5′-chloro-N2-(4-chlorobenzenesulfonyl)-N4-[(1R)-1-phenylbutyl]-[1,1′-biphenyl]-2,4-dicarboxamide] | 101 to 500 | 101 to 500
7 | CCC[C@@H](NC(=O)c1ccc(-c2cc(Cl)ccc2-c2nc3cccc(C)c3[nH]2)c(C(=O)O)c1)c1ccccc1 [Example 49, 5′-chloro-2,-(4-methyl-1H-1,3-benzodiazol-2-yl)-4-{[(1R)-1-phenylbutyl]carbamoyl}-[1,1′-biphenyl]-2-carboxylic acid] | 10 to 100 | 10 to 100
8 | CCC[C@@H](NC(=O)c1ccc(-c2cc(Cl)ccc2-c2nc(C)c(C)[nH]2)c(C(=O)O)c1)c1ccccc1 [Example 50, 5′-chloro-2′-(4,5-dimethyl-1H-imidazol-2-yl)-4-{[(1R)-1-phenylbutyl]carbamoyl}-[1,1′-biphenyl]-2-carboxylic acid] | 10 to 100 | 10 to 100
9 | CCC[C@@H](NC(=O)c1ccc(-c2ccc(Cl)cc2-c2nc3ccccc3[nH]2)c(C(=O)O)c1)c1ccccc1 [Example 54, 2′-(1H-1,3-benzodiazol-2-yl)-4′-chloro-4-{[(1R)-1-phenylbutyl]carbamoyl}-[1,1′-biphenyl]-2-carboxylic acid] | 10 to 100 | 10 to 100
10 | CCC[C@@H](NC(=O)c1ccc(-c2cccc(F)c2-c2nc3ccccc3[nH]2)c(C(=O)O)c1)c1ccccc1 [Example 55, 2′-(1H-1,3-benzodiazol-2-yl)-3′-fluoro-4-{[(1R)-1-phenylbutyl]carbamoyl}-[1,1′-biphenyl]-2-carboxylic acid] | 101 to 500 | 101 to 500

The next lines start with the values.

Row | EC50 [1] [nM] | EC50 [2] [nM] | SMILES
11 | < 10 | < 10 | CCC[C@@H](NC(=O)c1ccc(-c2cc(F)ccc2-c2nc3cc(OC)ccc3[nH]2)c(C(=O)O)c1)c1ccccc1 [Example 36, 5′-fluoro-2′-(5-methoxy-1H-1,3-benzodiazol-2-yl)-4-{[(1R)-1-phenylbutyl]carbamoyl}-[1,1′-biphenyl]-2-carboxylic acid]
12 | < 10 | < 10 | CCC[C@@H](NC(=O)c1ccc(-c2ccc(F)cc2-c2nc3cc(OC)ccc3[nH]2)c(C(=O)O)c1)c1ccccc1 [Example 37, 4′-fluoro-2′-(5-methoxy-1H-1,3-benzodiazol-2-yl)-4-{[(1R)-1-phenylbutyl]carbamoyl}-[1,1′-biphenyl]-2-carboxylic acid]
13 | < 10 | < 10 | CCC[C@@H](NC(=O)c1ccc(-c2cc(C)ccc2-c2nc3cc(C(C)(C)C)ccc3[nH]2)c(C(=O)O)c1)c1ccccc1 [Example 38, 2′-(5-tert-butyl-1H-1,3-benzodiazol-2-yl)-5′-methyl-4-{[(1R)-1-phenylbutyl]carbamoyl}-[1,1-biphenyl]-2-carboxylic acid]
14 | 10 to 100 | 10 to 100 | CCC[C@@H](NC(=O)c1ccc(-c2cc(F)ccc2-c2nc3cc(C(C)(C)C)ccc3[nH]2)c(C(=O)O)c1)c1ccccc1 [Example 39, 2′-(5-tert-butyl-1H-1,3-benzodiazol-2-yl)-5′-fluoro-4-{[(1R)-1-phenylbutyl]carbamoyl}-[1,1′-biphenyl]-2-carboxylic acid]
15 | < 10 | < 10 | CCC[C@@H](NC(=O)c1ccc(-c2cc(Cl)ccc2-c2nc3cc(Cl)ccc3[nH]2)c(C(=O)O)c1)c1ccccc1 [Example 47, 5′-chloro-2′-(5-chloro-1H-1,3-benzodiazol-2-yl)-4-{[(1R)-1-phenylbutyl]carbamoyl}-[1,1′-biphenyl]-2-carboxylicacid]
16 | < 10 | < 10 | CCC[C@@H](NC(=O)c1ccc(-c2cc(Cl)ccc2-c2nc3cc(C(C)C)ccc3[nH]2)c(C(=O)O)c1)c1ccccc1 [Example 48, 5′-chloro-4-{[(1R)-1-phenylbutyl]carbamoyl}-2′-[5-(propan-2-yl)-1H-1,3-benzodiazol-2-yl]-[1,1′-biphenyl]-2-carboxylic acid]
17 | < 10 | < 10 | CCC[C@@H](NC(=O)c1ccc(-c2cc(C(F)(F)F)ccc2-c2nc3ccccc3[nH]2)c(C(=O)O)c1)c1ccccc1 [Example 51, 2′-(1H-1,3-benzodiazol-2-yl)-4-{[(1R)-1-phenylbutyl]carbamoyl}-5′-(trifluoromethyl)-[1,1′-biphenyl]-2-carboxylic acid]
18 | < 10 | < 10 | CCC[C@@H](NC(=O)c1ccc(-c2ccccc2-c2nc3ccccc3[nH]2)c(C(=O)O)c1)c1ccccc1 [Example 52, 2′-(1H-1,3-benzodiazol-2-yl)-4-{[(1R)-1-phenylbutyl]carbamoyl}-[1,1′-biphenyl]-2-carboxylic acid]
19 | < 10 | < 10 | CCC[C@@H](NC(=O)c1ccc(-c2cc(OC)ccc2-c2nc3ccccc3[nH]2)c(C(=O)O)c1)c1ccccc1 [Example 53, 2′-(1H-1,3-benzodiazol-2-yl)-5′-methoxy-4-{[(1R)-1-phenylbutyl]carbamoyl}-[1,1′-biphenyl]-2-carboxylic acid]
20 | < 10 | < 10 | CCC[C@@H](NC(=O)c1ccc(-c2cc(C(F)(F)F)ccc2-c2nc3cc(OC)ccc3[nH]2)c(C(=O)O)c1)c1ccccc1 [Example 56, 2′-(5-methoxy-1H-1,3-benzodiazol-2-yl)-4-{[(1R)-1-phenylbutyl]carbamoyl}-5′-(trifluoromethyl)-[1,1′-biphenyl]-2-carboxylic acid]
